Values after ≈ are worked out from the molar mass of the structure shown.

One series can be described thus: Solubility in water. The settings on record: crystals of compound (I) vs spray-dried amorphous powder with HPMCAS. The series is classed as physicochemical.
Series [1] is described as follows: Bioavailability on oral administration. The settings on record: in vivo, orally administered, read-out: bioavailability (BA).
The next series addresses CYP3A4 (Homo sapiens, UniProt P08684). As to the kind of experiment: Metabolism by metabolic enzyme.
The target in another series is N-type calcium channel (Homo sapiens, UniProt Q00975). The settings on record: refer to Patent Document 1; cited from earlier work.
N-type calcium channel, sequence (Q00975 whole entry): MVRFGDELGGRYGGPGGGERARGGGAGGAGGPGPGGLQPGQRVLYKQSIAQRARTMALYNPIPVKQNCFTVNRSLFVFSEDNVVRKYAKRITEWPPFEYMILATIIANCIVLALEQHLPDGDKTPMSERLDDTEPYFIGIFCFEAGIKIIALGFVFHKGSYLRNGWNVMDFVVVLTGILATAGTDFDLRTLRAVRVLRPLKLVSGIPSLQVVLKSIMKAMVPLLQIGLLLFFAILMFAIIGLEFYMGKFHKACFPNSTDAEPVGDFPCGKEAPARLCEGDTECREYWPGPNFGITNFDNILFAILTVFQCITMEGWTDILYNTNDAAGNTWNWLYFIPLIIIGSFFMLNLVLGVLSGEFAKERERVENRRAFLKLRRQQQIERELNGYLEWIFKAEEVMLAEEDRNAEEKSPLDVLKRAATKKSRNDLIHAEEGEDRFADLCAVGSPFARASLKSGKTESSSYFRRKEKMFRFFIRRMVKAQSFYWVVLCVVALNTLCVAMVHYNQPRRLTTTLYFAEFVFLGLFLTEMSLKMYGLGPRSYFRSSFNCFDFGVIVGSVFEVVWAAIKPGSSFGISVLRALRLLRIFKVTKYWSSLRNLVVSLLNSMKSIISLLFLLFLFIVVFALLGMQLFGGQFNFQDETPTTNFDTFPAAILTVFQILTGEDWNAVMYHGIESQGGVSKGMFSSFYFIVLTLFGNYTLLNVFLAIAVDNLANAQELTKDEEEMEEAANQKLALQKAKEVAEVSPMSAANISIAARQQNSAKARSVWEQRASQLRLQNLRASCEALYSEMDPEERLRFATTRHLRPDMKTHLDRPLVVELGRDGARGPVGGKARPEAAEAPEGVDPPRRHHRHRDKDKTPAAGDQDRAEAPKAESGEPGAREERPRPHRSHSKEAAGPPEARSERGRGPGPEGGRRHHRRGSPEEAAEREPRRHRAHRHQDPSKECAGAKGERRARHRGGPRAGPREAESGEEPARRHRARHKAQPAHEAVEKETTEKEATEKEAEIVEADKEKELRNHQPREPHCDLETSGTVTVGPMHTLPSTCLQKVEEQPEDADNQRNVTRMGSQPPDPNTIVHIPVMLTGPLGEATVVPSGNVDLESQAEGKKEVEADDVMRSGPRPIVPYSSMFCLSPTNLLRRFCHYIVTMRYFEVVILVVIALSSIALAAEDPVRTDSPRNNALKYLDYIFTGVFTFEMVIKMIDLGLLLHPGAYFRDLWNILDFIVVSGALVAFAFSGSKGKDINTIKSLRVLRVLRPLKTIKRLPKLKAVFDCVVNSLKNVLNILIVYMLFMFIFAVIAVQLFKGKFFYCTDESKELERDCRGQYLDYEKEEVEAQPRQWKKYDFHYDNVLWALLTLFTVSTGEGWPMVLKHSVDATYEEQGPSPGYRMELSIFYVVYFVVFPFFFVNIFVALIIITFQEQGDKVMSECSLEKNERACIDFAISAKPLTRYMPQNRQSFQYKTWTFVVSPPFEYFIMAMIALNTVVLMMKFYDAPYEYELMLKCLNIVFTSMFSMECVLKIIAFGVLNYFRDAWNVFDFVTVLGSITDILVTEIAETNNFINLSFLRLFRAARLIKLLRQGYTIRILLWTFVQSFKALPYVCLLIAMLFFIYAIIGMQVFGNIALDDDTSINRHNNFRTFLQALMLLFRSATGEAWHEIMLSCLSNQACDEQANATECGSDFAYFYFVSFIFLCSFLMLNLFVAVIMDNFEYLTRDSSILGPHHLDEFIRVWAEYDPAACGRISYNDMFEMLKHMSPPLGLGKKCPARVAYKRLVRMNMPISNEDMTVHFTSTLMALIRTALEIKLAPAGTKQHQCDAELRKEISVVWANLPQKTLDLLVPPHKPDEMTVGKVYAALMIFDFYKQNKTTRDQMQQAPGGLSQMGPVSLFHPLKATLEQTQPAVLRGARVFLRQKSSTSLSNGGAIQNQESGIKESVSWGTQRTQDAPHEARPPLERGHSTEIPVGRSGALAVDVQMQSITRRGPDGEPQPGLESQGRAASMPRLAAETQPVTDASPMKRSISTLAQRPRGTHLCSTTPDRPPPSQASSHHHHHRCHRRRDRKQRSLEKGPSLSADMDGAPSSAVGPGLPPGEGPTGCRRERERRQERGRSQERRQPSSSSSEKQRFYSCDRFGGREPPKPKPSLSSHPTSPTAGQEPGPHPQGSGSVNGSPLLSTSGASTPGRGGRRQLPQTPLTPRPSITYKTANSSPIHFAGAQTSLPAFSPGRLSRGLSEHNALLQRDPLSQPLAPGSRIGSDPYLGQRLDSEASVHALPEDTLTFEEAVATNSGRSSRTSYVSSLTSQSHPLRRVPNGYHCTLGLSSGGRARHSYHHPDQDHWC

CYP3A4, sequence (P08684 whole entry): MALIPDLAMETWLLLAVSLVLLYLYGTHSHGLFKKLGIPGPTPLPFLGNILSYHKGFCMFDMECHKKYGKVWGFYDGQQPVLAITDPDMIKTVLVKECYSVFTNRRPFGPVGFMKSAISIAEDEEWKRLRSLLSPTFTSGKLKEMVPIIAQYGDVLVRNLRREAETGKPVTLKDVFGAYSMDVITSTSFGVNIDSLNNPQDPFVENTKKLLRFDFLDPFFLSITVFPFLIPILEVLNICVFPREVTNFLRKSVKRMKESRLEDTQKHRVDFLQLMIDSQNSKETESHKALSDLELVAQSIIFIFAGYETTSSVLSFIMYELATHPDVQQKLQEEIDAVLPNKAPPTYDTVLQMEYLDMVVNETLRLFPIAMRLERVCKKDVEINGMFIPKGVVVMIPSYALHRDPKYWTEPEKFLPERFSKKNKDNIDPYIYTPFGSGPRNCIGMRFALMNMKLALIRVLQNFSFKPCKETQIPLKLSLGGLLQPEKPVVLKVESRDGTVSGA

As for `CC(C)(C)OC(=O)N1CSC[C@H]1C(=O)N[C@@H](CSCC1CCCCC1)C(=O)NC1CCN(Cc2ccccc2)CC1` [compound (I), (2R)—N-(1-benzylpiperidin-4-yl)-3-cyclohexylmethylthio-2-[(4R)-3-tert-butoxycarbonylthiazolidin-4-ylcarbonylamino]propaneamide], the solubility (commonly how much of the substance goes into solution per volume) in the series “Solubility in water” was around 1.25 µg/mL (≈ 2.07 µM). In addition, the bioavailability (usually dose-corrected exposure relative to a reference, in per cent) in series [1] was around 0.2%. In addition, the metabolic enzyme result at CYP3A4 is recorded as “metabolized by CYP3A4”. Also, the “N-type calcium channel inhibiting activity” value at N-type calcium channel is recorded as “N-type calcium channel inhibiting activity”.

Source of the values: patent US20080096924A1, “Amorphous Composition” (ONO PHARMACEUTICAL CO., LTD., priority 2004, published 2008).
